From article PMC12040169 (PLOS Biology, 2025)

test: in vitro; details: human, hela cells, % viability

Compound	viability at 28.5 h, 10 µM
CC(C)C[C@@H]1N[C@H](C(=O)NC2CC2)Cc2cn(Cc3nccn3C)c3cccc1c23 [CBK289423]	108%
Cc1ccc(C(=O)Nc2cccc(-c3nc4ncccc4o3)c2C)cc1[N+](=O)[O-] [CBK262793]	94.3%
O=C(Nc1ccc2[nH]ccc2c1)c1ccc(OC(F)(F)F)cc1 [CBK159688]	61.5%
Nc1nc(CCC(=O)N2Cc3cnn(Cc4ccc(F)cc4)c3C2)cs1 [CBK307019]	99.6%
CCNC(=S)N[C@@H]1CC[C@@]2(c3ccc([N+](=O)[O-])cc3)CCN(CCc3ccccc3)[C@H]2C1 [CBK004677]	90.5%
Cc1ccc(OC(C)C(=O)Nc2cc(C(C)(C)C)on2)cc1C (stereo not drawn) [CBK288251]	107%
O=C(O)CN(CC(=O)O)c1ccccc1 [CBK261326]	90.7%
Cc1csc(-c2ccc(C(=O)N3CCN(C)CC3)c(N3CCOCC3)n2)c1 [CBK106195]	90.8%
COCC(=O)N[C@H]1C[C@@H](Cc2cc(C(C)(C)C)on2)C1(C)C [CBK289244]	106%
COC(=O)CC1(C)C(=O)CCC2(C)C1=CCc1ccccc12 (stereo not drawn) [CBK006547]	105%
COc1cccc(CNC(=O)C2CCCN(c3nc4c(-c5ccccc5)csc4c(=O)[nH]3)C2)c1 (stereo not drawn) [CBK215463]	99.8%
COC(=O)c1ccsc1NS(=O)(=O)c1cc(F)c(Br)cc1F [CBK039068]	96.5%
COc1ccc([C@@]23CC[C@@H](NC(=O)Nc4ccnc5ccccc45)C[C@@H]2N(C)CC3)cc1OC [CBK045699]	100%
O=C(O)c1cc(C(=O)O)n(Cc2ccc(Cl)cc2Cl)n1 [CBK268283]	103%
CCCc1cnc(N2CCN(CC(=O)Nc3ccc(C(C)=O)cc3)CC2)nc1 [CBK086194]	104%
O=C(CN1CCOCC1)N1CCc2ccccc21 [CBK200271]	96.3%
O=C(C1CCC1)N1CCC(c2nc(Cc3cccs3)no2)C1 (stereo not drawn) [CBK283028]	90.9%
O=S(=O)(NCc1ccccc1)c1cc(S(=O)(=O)c2ccc(Cl)cc2)ccc1Cl [CBK263207]	109%
COc1ccc(CCNC(=O)C(=O)Nc2ccc(C)c(C)c2)cc1 [CBK263222]	91.1%
COc1ccccc1CC(=O)N1[C@H](Cc2ccccc2)C[C@@H]2NCCCCC[C@H]21 [CBK285978]	96.3%
COc1ccc(CNS(=O)(=O)c2cc(OCC(N)=O)c(C)cc2Cl)cc1 [CBK266495]	110%
O=C(N/N=C\c1ccc(OCc2ccccc2)cc1)C1COc2cc3ccccc3cc2O1 (stereo not drawn) [CBK262764]	95.6%

Compound	viability at 28.5 h, 10 µM
CCOC(=O)N1CCN(S(=O)(=O)c2ccc3[nH]c(=O)oc3c2)CC1 [CBK304679]	105%
Cc1nc(CN(C)C2CCN(Cc3ccc4c(c3)CCC4)C2)no1 (stereo not drawn) [CBK304052]	76.5%
Cc1cc(C)nc(N2CCC(CC(=O)N3CCN(C4CCCC4)CC3)CC2)n1 [CBK285957]	97.6%
CSCCCN1CCn2nc(CNc3cnccn3)cc2C1 [CBK307136]	92.5%
O=C(CCCn1cccn1)N1CCCN(Cc2ccc(F)cc2)CC1 [CBK304641]	99.7%
COc1ccc(C(NC(=O)c2cc3ccccc3[nH]2)C2CC2)cc1 (stereo not drawn) [CBK297896]	97.9%
COc1ccc2[nH]c3c(c2c1)CCNC31CCN(Cc2ccc(S(C)(=O)=O)cc2)CC1 [CBK039753]	88.8%
COCc1cccc(-c2nccnc2OC2CCCCC2)c1 [CBK106959]	87.5%
O=C(N[C@H]1CCCC[C@H]1N1CCCC1)N[C@H]1CCCC[C@H]1N1CCCC1 [CBK003419]	115%
COc1ccccc1NC(=O)Cn1cc(C(=O)c2cccs2)c2ccccc21 [CBK268256]	98.6%
Cc1ccc2oc(C(=O)N(CCO)CCc3ccncc3)c(C)c2c1 [CBK281642]	106%
CCCCCOc1ccc(Nc2ccc(-c3cccnc3)cn2)cc1 [CBK036948]	109%
O=C(CSc1nnc(-c2ccncc2)n1-c1ccccc1)N/N=C/c1c[nH]c2ccc(Br)cc12 [CBK262816]	91.5%
Oc1ccc2cc(-c3cccc(C(F)(F)F)c3)cnc2n1 [CBK081285]	59.5%
Cn1c(=O)n(C)c2cc(S(=O)(=O)NCCOc3ccc(C(=O)O)cc3)ccc21 [CBK299824]	94.9%
COc1ccc(-c2cc(C(=O)NCCS(C)(=O)=O)cnc2-c2ccc(Cl)cc2)cc1 [CBK037620]	111%
NS(=O)(=O)c1ccc(NC(=S)NC(=O)c2cccc3c(Cl)cccc23)cc1 [CBK268814]	99.5%
COc1cccc(CNC23CC4CC(CC(C4)C2)C3)c1OCc1ccccc1 [CBK268873C]	92%
O=C(c1cccc2ncccc12)N1CCN(CC2CCOC2)CC1 (stereo not drawn) [CBK305140]	94.3%
O=C(O)CS(=O)(=O)c1ccccc1C(=O)O [CBK261083]	98.9%
CSCCCNC(=O)N1CCN(Cc2ccccc2)CC1 [CBK155623]	89.9%
CN1CCN(C(=O)c2[nH]c3ccccc3c2NS(=O)(=O)/C=C/c2ccccc2)CC1 [CBK050047]	106%

Compound	viability at 28.5 h, 10 µM
Cc1ccc2[nH]c(SCc3nc(O)c4ccccc4n3)nc2c1 [CBK269908]	84%
Cc1c(C(=O)O)sc(S(=O)(=O)N2CCN(C(=O)c3ccc(Cl)cc3)CC2)c1C(=O)O [CBK297123]	96.9%
O=C(NCc1ccccc1)c1ccc(N2CCOCC2)nc1 [CBK200244]	96.3%
N#CCC(=O)Nc1ccc(C(=O)N2CCN(c3ccccc3)CC2)cc1 [CBK306060]	91.9%
O=C(O)CC1SC(=O)N(c2ccccc2)C1=O (stereo not drawn) [CBK287085]	78.8%
CCOC(=O)C(C)n1nc(CC)n2c(cc3sc(C)cc32)c1=O (stereo not drawn) [CBK284123]	86%
Cn1cncc1C(=O)N1Cc2ccccc2C1 [CBK200329]	106%
CC(C)Nc1cncc(OCCN2CCNCC2)n1 [CBK115601]	93.6%
COc1ccc(NCC(=O)N/N=C(\C)c2ccccc2O)cc1 [CBK263887]	86.3%
COc1cc(OC)c2c(c1)OC1(CCN(C(=O)c3cnc(C)cn3)CC1)CC2=O [CBK156503]	105%
Nc1nc2c(O)cccc2s1 [CBK003892B]	85.6%
CCc1nc2ccccc2n1CC(=O)N(Cc1cccnc1)C1CC1 [CBK304064]	107%
COCCN(C(=S)Nc1ccc(C)cc1Cl)C(C)c1cccnc1 (stereo not drawn) [CBK294472]	91.1%
COc1ccccc1CN(CCCn1ccnc1)Cc1ccco1 [CBK283116]	111%
CCCn1cnc2cc(NC(=O)C3CCN(S(=O)(=O)c4ccc(F)cc4)C3)ccc21 (stereo not drawn) [CBK285704]	85.8%
Clc1ccc2nc(SCc3csc(Nc4ccccc4)n3)oc2c1 [CBK268269]	100%
COc1ccc(CCCN2CCC(C(=O)NC(=O)Nc3cc(OC)c(OC)c(OC)c3)CC2)cc1 [CBK034855]	86.3%
CC1CCN(S(=O)(=O)c2ccc(NC(=O)CCn3c(=O)oc4ccccc43)cc2)CC1 [CBK268040]	97.1%
CCNS(=O)(=O)c1ccc(CCC(=O)Nc2ccc3c(c2)OCCO3)cc1 [CBK268255]	109%
O=C(OCc1ccccc1F)c1cccc(-c2nnc(-c3ccccc3)o2)c1 [CBK267798]	84.6%
O=C(CCN1C(=O)c2ccc([N+](=O)[O-])cc2C1=O)Nc1ccccc1-c1ccccc1 [CBK265134]	103%
CC1CCN(Cc2csc(NC(=O)CCn3c(-c4cccs4)n[nH]c3=S)n2)CC1 [CBK297892]	92.2%

Compound	viability at 28.5 h, 10 µM
O=C(NCCn1nc(-c2cccs2)ccc1=O)C1CCCCC1 [CBK283837]	90.7%
CCN1CCCCC1CNC(=O)Cn1nc(C)cc1C (stereo not drawn) [CBK282057]	98.6%
C/C(=N\NC(=O)CCC(=O)Nc1ccccc1C)c1ccc(O)cc1O [CBK261946]	94.2%
O=C(CSc1ccc(Cl)cc1)N1CCN(c2ccc([N+](=O)[O-])c(N3CCOCC3)c2)CC1 [CBK269670]	85.3%
O=C(OCc1ccccc1)N1CCC(C2OCc3ccc(-c4ccc(Cl)c(Cl)c4)cc3O2)CC1 (stereo not drawn) [CBK144646]	109%
Cn1c(SCC(=O)Nc2ccccc2[N+](=O)[O-])nc2ccccc2c1=O [CBK265096]	106%
COc1ccc(-c2cn[nH]c2-c2ccc(OCCN3CCOCC3)cc2O)cc1 [CBK288112]	97%
O=C(NCCCc1ccc(F)cc1)c1cccc(-n2cnnc2)c1 [CBK282713]	102%
CCN(CC)C(=O)CN1CCC(c2ccc(F)cc2)CC1 [CBK285475]	108%
O=C(Cn1c(-c2ccc(F)cc2)cc2cccnc21)N1CCOCC1 [CBK285383]	94.8%
Cn1ccnc1C1(O)CC2CCC(C1)N2C(=O)c1c(F)cccc1F (stereo not drawn) [CBK284092]	88.7%
Cc1cc(C)cc(/N=C2\NC(=O)C(CC(=O)O)S2)c1 (stereo not drawn) [CBK286878]	91.4%
O=C(CSc1ncn(-c2ccccc2)n1)Nc1c(Cl)cccc1Cl [CBK269683]	94.7%
Cc1ccc(N(CC(=O)NN=C2CCCCCCCCCCC2)S(=O)(=O)c2ccccc2)cc1 [CBK262192]	105%
COc1ccc(C(C)c2cc3c(cc2N)OCO3)cc1 (stereo not drawn) [CBK200102T]	87.2%
O=C(CN1C(=O)c2ccccc2C1=O)Nn1cnnc1 [CBK263789]	99.6%
Cc1ccc2nc(Cn3cc(-c4cnn(Cc5ccccc5)c4)cn3)cn2c1 [CBK297125]	90.4%
CC(=O)c1c(C)oc2ccc(N(C(C)=O)S(=O)(=O)c3ccc(C(=O)O)cc3)cc12 [CBK299790]	106%
COc1ccc(Br)cc1/C=N/NC(=O)C1CC(c2ccccc2)(c2ccccc2)C1 [CBK263218]	88.8%
CS(=O)(=O)N1CC2(CCN(Cc3cccc4cccnc34)CC2)c2ccccc21 [CBK136955]	93.2%
O=C(O)c1cccc(NS(=O)(=O)c2cc(C(F)(F)F)cc(C(F)(F)F)c2)c1 [CBK155725]	102%
